Key:
[1] = organism: Homo sapiens; assay: Inhibition of alpha-CD3 mAb induced IL-2 production in human whole blood; format: functional, organism-based
[2] = tested on: Mus musculus; assay: Tested in vivo for inhibition ofTCR stimulated (alpha-CD3 mAb) IL-2 production in mice after oral dosing for 18 hr; format: functional; design: concentration or dose not given beside the values
[3] = tested on: Mus musculus; assay: Tested in vivo for inhibition ofTCR stimulated (alpha-CD3 mAb) IL-2 production in mice after oral dosing for 8 hr; format: functional; design: concentration or dose not given beside the values
[4] = tested on: Mus musculus; assay: Tested in vivo for inhibition ofTCR stimulated (alpha-CD3 mAb) IL-2 production in mice after oral dosing; format: functional
[5] = target: T1, Vascular endothelial growth factor receptor 2 (Homo sapiens, UniProt P35968); assay: Inhibition of human VEGF-receptor 2 (kdr) kinase.
T1 sequence (P35968 whole entry): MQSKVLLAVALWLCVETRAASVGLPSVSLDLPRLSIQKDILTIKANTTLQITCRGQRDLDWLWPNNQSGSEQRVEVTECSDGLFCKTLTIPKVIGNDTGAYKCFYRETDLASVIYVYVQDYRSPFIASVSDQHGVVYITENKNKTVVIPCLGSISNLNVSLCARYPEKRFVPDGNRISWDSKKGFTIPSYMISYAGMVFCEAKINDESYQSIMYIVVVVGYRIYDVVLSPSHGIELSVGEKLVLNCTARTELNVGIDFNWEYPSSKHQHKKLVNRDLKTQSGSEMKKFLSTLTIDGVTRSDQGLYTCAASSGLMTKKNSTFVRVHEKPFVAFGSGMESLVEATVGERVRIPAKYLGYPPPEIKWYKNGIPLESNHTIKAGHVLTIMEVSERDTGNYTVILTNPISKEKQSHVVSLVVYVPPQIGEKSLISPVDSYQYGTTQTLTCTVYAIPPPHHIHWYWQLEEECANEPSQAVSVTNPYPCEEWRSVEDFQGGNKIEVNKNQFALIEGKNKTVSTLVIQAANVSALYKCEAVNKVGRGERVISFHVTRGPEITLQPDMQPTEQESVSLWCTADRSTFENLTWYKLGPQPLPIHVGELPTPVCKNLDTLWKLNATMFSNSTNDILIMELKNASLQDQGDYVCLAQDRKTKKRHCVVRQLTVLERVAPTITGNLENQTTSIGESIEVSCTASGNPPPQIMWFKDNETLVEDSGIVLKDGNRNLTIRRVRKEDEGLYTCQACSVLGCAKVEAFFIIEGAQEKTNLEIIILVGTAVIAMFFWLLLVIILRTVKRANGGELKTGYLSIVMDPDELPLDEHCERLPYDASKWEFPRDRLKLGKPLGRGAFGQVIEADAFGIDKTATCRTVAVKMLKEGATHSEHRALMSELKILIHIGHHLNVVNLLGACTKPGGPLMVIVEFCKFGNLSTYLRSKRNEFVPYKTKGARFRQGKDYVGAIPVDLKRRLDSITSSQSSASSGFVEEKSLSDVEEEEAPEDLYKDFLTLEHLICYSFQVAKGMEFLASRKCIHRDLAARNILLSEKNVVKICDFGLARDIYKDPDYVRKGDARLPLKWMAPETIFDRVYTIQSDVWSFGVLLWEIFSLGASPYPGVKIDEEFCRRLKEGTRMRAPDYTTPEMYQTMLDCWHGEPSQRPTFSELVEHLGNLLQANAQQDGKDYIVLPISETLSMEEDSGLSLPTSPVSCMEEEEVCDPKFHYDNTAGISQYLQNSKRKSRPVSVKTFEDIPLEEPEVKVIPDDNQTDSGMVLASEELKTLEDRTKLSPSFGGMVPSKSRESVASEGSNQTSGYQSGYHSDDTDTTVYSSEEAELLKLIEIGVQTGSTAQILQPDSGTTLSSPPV

[6] = Compound was evaluated for pharmacokinetic parameter percent bioavailability at 8 h; format: ADME, organism-based; settings: rat, in vivo
[7] = organism: Rattus norvegicus; assay: Compound was evaluated for pharmacokinetic parameter maximum plasma concentration; format: ADME, organism-based; settings: in vivo
[8] = target: Tyrosine-protein kinase Lck (Homo sapiens, UniProt P06239); assay: Inhibition of human p56 Lck tyrosine kinase
Chain of Tyrosine-protein kinase Lck (P06239 whole entry): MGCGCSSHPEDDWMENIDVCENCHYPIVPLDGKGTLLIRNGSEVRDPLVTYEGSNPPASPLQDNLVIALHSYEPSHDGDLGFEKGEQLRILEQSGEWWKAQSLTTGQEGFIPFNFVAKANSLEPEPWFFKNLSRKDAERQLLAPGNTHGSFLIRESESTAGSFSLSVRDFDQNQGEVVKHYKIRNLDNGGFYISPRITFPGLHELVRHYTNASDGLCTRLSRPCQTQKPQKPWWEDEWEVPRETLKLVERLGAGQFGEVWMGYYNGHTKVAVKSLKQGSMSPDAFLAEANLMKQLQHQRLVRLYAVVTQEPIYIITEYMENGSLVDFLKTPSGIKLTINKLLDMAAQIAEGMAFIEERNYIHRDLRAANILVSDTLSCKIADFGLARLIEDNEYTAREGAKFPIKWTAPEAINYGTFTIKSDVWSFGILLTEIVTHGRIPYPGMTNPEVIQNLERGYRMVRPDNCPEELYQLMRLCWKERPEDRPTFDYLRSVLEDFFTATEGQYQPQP

[9] = Compound was evaluated for pharmacokinetic parameter percent bioavailability at 18 h; format: ADME, organism-based; settings: rat, in vivo
[10] = target: T1, Vascular endothelial growth factor receptor 2; assay: Inhibition of Vascular endothelial growth factor receptor 2
[11] = Compound was evaluated for pharmacokinetic parameter maximum time period; format: ADME, organism-based; settings: rat, in vivo
[12] = Compound was evaluated for pharmacokinetic parameter volume of distribution; format: ADME, organism-based; settings: rat, in vivo
[13] = tested on: Rattus norvegicus; assay: In vivo clearance after 5 mg/kg dose; format: ADME, organism-based; design: dose 5 mg/kg
[14] = target: Angiopoietin-1 receptor (Homo sapiens, UniProt Q02763); assay: Inhibition of TIE-2 kinase
Chain of Angiopoietin-1 receptor (Q02763 whole entry): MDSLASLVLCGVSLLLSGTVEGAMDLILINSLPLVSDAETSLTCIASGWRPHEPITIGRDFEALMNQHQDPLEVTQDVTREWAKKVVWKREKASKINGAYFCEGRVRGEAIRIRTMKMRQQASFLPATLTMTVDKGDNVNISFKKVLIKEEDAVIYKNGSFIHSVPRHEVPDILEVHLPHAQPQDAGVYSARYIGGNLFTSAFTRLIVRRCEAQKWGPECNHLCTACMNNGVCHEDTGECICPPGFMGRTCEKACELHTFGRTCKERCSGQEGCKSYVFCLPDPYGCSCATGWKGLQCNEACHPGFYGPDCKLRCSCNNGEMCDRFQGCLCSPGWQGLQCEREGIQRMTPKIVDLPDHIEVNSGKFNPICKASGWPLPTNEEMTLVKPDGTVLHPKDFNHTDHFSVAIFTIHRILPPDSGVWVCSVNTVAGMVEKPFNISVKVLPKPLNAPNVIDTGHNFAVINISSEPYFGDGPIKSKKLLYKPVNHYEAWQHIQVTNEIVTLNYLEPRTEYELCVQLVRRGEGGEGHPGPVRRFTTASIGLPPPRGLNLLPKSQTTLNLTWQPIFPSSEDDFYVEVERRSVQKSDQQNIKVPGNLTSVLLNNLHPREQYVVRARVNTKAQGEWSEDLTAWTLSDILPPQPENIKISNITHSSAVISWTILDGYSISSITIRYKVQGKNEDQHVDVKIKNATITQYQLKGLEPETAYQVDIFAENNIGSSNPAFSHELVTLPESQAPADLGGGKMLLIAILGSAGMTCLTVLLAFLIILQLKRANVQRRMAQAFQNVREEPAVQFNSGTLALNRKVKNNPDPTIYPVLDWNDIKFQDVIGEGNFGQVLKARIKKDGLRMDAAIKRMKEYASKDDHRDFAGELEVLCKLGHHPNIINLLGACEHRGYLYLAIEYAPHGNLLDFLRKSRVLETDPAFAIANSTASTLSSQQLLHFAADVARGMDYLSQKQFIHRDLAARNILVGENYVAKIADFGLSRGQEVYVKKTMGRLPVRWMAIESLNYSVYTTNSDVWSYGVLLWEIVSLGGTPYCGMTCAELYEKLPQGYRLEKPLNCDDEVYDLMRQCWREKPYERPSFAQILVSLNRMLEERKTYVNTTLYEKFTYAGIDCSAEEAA

[15] = target: Proto-oncogene tyrosine-protein kinase Src (Homo sapiens, UniProt P12931); assay: Inhibition of Src protein tyrosine kinase
Chain of Proto-oncogene tyrosine-protein kinase Src (P12931 2-536 limits assumed): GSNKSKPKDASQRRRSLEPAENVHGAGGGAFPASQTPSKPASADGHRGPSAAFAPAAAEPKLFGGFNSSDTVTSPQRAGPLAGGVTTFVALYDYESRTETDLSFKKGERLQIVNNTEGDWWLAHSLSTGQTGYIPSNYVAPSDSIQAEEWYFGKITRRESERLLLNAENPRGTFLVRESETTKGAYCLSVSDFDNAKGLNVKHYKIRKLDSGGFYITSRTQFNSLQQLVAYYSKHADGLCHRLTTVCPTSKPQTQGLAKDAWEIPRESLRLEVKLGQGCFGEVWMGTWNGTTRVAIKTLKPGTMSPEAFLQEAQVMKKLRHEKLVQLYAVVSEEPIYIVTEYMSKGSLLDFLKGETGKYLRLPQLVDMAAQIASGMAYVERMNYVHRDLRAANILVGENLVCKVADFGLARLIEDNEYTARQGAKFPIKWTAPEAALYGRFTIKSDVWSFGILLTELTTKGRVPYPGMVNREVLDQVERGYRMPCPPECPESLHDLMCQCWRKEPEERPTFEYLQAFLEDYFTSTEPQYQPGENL

| SMILES | IC50 [1] [µM] | Inhibition [2] [%] | Inhibition [3] [%] | ED50 [4] [mg/kg] | ED90 [4] [mg/kg] | IC50 [5] [µM] | also measured |
| --- | --- | --- | --- | --- | --- | --- | --- |
| COc1cc(-c2nn([C@H]3CC[C@H](N4CCN(C)CC4)CC3)c3ncnc(N)c23)ccc1NC(=O)CC(C)(C)c1ccccc1 | 0.008 | 22 | 98 | 2 | 12.5 | 34.6 |  |
| COc1cc(-c2nn([C@H]3CC[C@H](N4CCN(C)CC4)CC3)c3ncnc(N)c23)ccc1NC(=O)CCc1ccccc1 | 0.038 | <10 | 63 | 5 | 30 | > 50 |  |
| COc1cc(-c2nn([C@H]3CC[C@H](N4CCN(C)CC4)CC3)c3ncnc(N)c23)ccc1NC(=O)c1ccccc1 | 0.05 | <10 | 37 | 9 | 23 | > 50 |  |
| COc1cc(-c2nn([C@H]3CC[C@H](N4CCN(C)CC4)CC3)c3ncnc(N)c23)ccc1NS(=O)(=O)c1ccccc1 |  |  |  |  |  | > 50 |  |
| COc1cc(Cc2nn([C@H]3CC[C@H](N4CCN(C)CC4)CC3)c3ncnc(N)c23)ccc1NC(=O)[C@@H]1C[C@H]1c1ccccc1 |  |  |  |  |  | > 50 |  |
| COc1cc(-c2nn([C@H]3CC[C@H](N4CCN(C)CC4)CC3)c3ncnc(N)c23)ccc1NC(=O)C(C)(C)Cc1ccccc1 |  |  |  |  |  | > 50 |  |
| COc1cc(-c2nn([C@H]3CC[C@H](N4CCN(C)CC4)CC3)c3ncnc(N)c23)ccc1NC(=O)c1cc2ccccc2o1 | 0.006 | <10 | 48 | 8.5 | 12.5 | > 50 |  |
| CN1CCN([C@H]2CC[C@H](n3nc(-c4ccc(Oc5ccccc5)cc4)c4c(N)ncnc43)CC2)CC1 |  | 49 | 84 | 1.5 | 6 |  | half-life [6]: 5.2 h; Cmax [7]: 0.62 uM l-1; IC50 [8]: 0.04 µM; bioavailability [9]: 69%; IC50 [10]: 5.32 µM; Tmax [11]: 1.5 h; Vd [12]: 9.6 L/kg; Clp [13]: 1.2 L/h/kg |
| CN1CCN([C@H]2CC[C@H](n3cc(-c4ccc(Oc5ccccc5)cc4)c4c(N)ncnc43)CC2)CC1 |  |  |  | 2.5 |  |  | IC50 [8]: 0.015 µM; IC50 [14]: 0.25 µM; IC50 [15]: 0.042 µM |
| COc1cc(-c2nn([C@H]3CC[C@H](N4CCN(C)CC4)CC3)c3ncnc(N)c23)ccc1NCc1ccccc1 |  |  |  |  |  |  | IC50 [8]: 0.055 µM; IC50 [10]: > 50 µM |
| COc1cc(-c2nn([C@H]3CC[C@H](N4CCN(C)CC4)CC3)c3ncnc(N)c23)ccc1NC(=O)Nc1ccccc1 |  |  |  |  |  | 0.263 |  |
| CN1CCN([C@H]2CC[C@H](n3nc(-c4ccc(NCc5cc6ccccc6[nH]5)cc4)c4c(N)ncnc43)CC2)CC1 |  |  |  |  |  | 0.435 |  |
| CN1CCN([C@H]2CC[C@H](n3nc(-c4ccc(C(=O)c5ccccc5)cc4)c4c(N)ncnc43)CC2)CC1 |  |  |  |  |  | > 50 |  |
| CN1CCN([C@H]2CC[C@H](n3nc(-c4ccc(Nc5ccccc5)cc4)c4c(N)ncnc43)CC2)CC1 | 0.135 | <10 | 95 | 2.5 | 10.7 | 3.81 |  |
| COc1cc(-c2nn([C@H]3CC[C@H](N4CCN(C)CC4)CC3)c3ncnc(N)c23)ccc1NC(=O)OCc1ccccc1 | 0.002 | 14 | 51 | 3 | 14 | 34.2 |  |

Source: ChEMBL document CHEMBL1135159, “Pyrazolo[3,4-d]pyrimidines containing an extended 3-substituent as potent inhibitors of Lck -- a selectivity insight” (Bioorg Med Chem Lett, 2002)
